{"source": "patent US10864253B2", "about": "“Tissue protective peptides for preventing and treating diseases and disorders associated with tissue damage” (Araim Pharmaceuticals, Inc., priority 2016, dated 2020)", "key": {"Akt": {"tested_on": "Akt", "assay": "Activation of Akt phosphorylation in HUVECs (Western blot)", "format": "cell-based", "conditions": "HUVECs treated with peptide; Western blot anti-phospho-Akt / anti-Akt; FIG. 2", "method": "In one assay for the activation of AKT by phosphorylation, HUVECs are purchased from Cell Applications (San Diego, Calif.) and grown in medium EGM-2 supplemented with 2% fetal calf serum (FCS) and penicillin/streptomycin (P/S) at 37° C. under air containing 5% CO2 in a humidified incubator. Preliminary experiments can be performed to determine the time course of the phosphorylation of Akt following stimulation by compounds that activated the tissue protective receptor. In some assays, the phosphorylation of Akt reaches a maximum 10 minutes following stimulation by compounds that activated the tissue protective receptor. After HUVECs are treated with tissue protective peptides or controls, cell lysates are prepared and Western blot is performed using anti-Akt and anti-phospho-Akt antibodies (Cell Signaling Technology, Danvers, Mass.). To perform the Western blot, cell lysates are subjected to SDS-PAGE, and transferred to nitrocellulose membranes (Amersham Biosciences, Piscataway, N.J.). The membrane is blocked for 1 h at room temperature with PBS containing 2% BSA and 0.05% Tween 20. The blots are incubated overnight at 4° C. or for 4 h at room temperature with a primary antibody against phospho-Akt, followed by incubation for 1 h with a secondary, horseradish peroxidase-conjugated antibody. Then the blots are reprobed with an antibody against Akt to confirm equal protein loading. […]"}, "[1]": {"tested_on": "STZ-induced diabetic mice", "assay": "STZ-induced diabetic neuropathy mouse model, paw thermal withdrawal latency", "format": "in vivo", "conditions": "STZ diabetic Swiss Webster mice, FIG. 3", "method": "To test a peptide in a diabetic neuropathy mouse model, male Swiss Webster mice are given a single injection of STZ (180 mg/kg i.p.) to induce insulin-deficient diabetes. Hyperglycemia is confirmed 3 days thereafter, and to ensure induction of sufficient neuropathy, only mice with blood glucose levels exceeding 15 mmol/l are used. […] The time from initiation of heating to paw withdrawal is recorded in 4 separate trials 5 minutes apart, with the median value of the last 3 trials used for each mouse. […]\nBriefly, male Swiss Webster mice were given a single injection of STZ (180 mg/kg i.p.) to induce insulin-deficient diabetes. […] The time from initiation of heating to paw withdrawal was recorded in 4 separate trials 5 minutes apart, with the median value of the last 3 trials used for each mouse."}}, "data": [{"substance": "GDKA (Tissue protective peptide)", "values": [{"measurement": "activation of AKT (phosphorylation of Akt)", "setting": "Akt", "result": "activated AKT"}, {"measurement": "thermal threshold (thermal withdrawal latency)", "setting": "[1]; eye drops 50 microliters of 50 nanomolar solution to both eyes five days/week, after 12 weeks of therapy", "result": "normal thermal threshold"}, {"measurement": "thermal threshold compared with PBS-treated diabetic mice", "setting": "[1]; eye drops 50 nanomolar, five days/week, 12 weeks", "result": "significantly lower"}]}]}
